In US20060205949A1, “Crystalline forms of a biphenyl compound” (THERAVANCE, INC., priority 2005, published 2006) one finds Ki data, which are given here for one compound.

pKi: −log10 of the molar value. Where only a bound is given, the exact number is not on record here.

The pKi is −log10 of the Ki, conventionally taken in molar units.

Test [1] addresses T1, M3 muscarinic receptor subtype (hM3) (Homo sapiens, UniProt P20309).
T1 construct: expressed in transfected cells
Kind of test: Radioligand binding assay ([3H]-NMS displacement). Conditions: CHO cell membranes, tested in this or a similar assay. The protocol: CHO cell lines stably expressing cloned human hM1, hM2, hM3 and hM4 muscarinic receptor subtypes, respectively, were grown to near confluency in medium consisting of HAM's F-12 supplemented with 10% FBS and 250 μg/mL Geneticin. The cells were grown in a 5% CO2, 37° C. incubator and lifted with 2 mM EDTA in DPBS. Cells were collected by 5 minute centrifugation at 650×g, and cell pellets were either stored frozen at −80° C. or membranes were prepared immediately. For membrane preparation, cell pellets were resuspended in lysis buffer and homogenized with a Polytron PT-2100 tissue disrupter (Kinematica AG; 20 seconds×2 bursts). Crude membranes were centrifuged at 40,000×g for 15 minutes at 4° C. […] The protein concentration of the membrane suspension was determined by the method described in Lowry, O. et al., Journal of Biochemistry 193:265 (1951). […]
Radioligand binding assays were performed in 96-well microtiter plates in a total assay volume of 100 μL. […] Filter plates were rinsed three times with wash buffer (10 mM HEPES) to remove unbound radioactivity. […] The plates were then counted in a PerkinElmer Topcount liquid scintillation counter (PerkinElmer Inc., Wellesley, Mass.). Binding data were analyzed by nonlinear regression analysis with the GraphPad Prism Software package (GraphPad Software, Inc., San Diego, Calif.) using the one-site competition model. […]

In test [2] the target is T2, hM2 receptor (CHO-K1 cells) (Homo sapiens, UniProt P08172).
T2 construct: expressed in transfected cells; host or cells: CHO-K1 cells
T2 sequence (P08172 1-466): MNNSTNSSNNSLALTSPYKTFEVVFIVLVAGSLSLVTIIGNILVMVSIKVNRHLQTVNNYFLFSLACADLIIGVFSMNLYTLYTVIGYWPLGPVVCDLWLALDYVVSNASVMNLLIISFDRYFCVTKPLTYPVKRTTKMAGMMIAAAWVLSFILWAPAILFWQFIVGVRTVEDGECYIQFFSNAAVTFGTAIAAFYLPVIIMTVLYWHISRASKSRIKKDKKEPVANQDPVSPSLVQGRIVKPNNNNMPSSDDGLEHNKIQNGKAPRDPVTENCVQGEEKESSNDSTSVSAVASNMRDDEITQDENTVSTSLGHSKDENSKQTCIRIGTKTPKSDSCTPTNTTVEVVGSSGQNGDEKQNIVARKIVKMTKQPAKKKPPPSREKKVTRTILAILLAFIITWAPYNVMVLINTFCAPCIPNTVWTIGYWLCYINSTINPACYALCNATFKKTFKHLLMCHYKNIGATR
Kind of test: Blockade of agonist-mediated inhibition of cAMP accumulation. Conditions: CHO-K1 cells expressing the hM2 receptor; this or a similar assay; read-out: Ki value for blockade of oxotremorine-inhibition of forskolin-mediated cAMP accumulation. Type of test: cell-based. The protocol:
In this assay, the functional potency of a test compound was determined by measuring the ability of the test compound to block oxotremorine-inhibition of forskolin-mediated cAMP accumulation in CHO-K1 cells expressing the hM2 receptor. cAMP assays were performed in a radioimmunoassay format using the Flashplate Adenylyl Cyclase Activation Assay System with ^125I-cAMP (NEN SMP004B, PerkinElmer Life Sciences Inc., Boston, Mass.), according to the manufacturer's instructions.
Cells were rinsed once with dPBS and lifted with Trypsin-EDTA solution (0.05% trypsin/0.53 mM EDTA) as described in the Cell Culture and Membrane Preparation section above. The detached cells were washed twice by centrifugation at 650×g for five minutes in 50 mLs dPBS. The cell pellet was then re-suspended in 10 mL dPBS, and the cells were counted with a Coulter ZI Dual Particle Counter (Beckman Coulter, Fullerton, Calif.). […]
To measure the ability of a test compound to block oxotremorine-inhibited AC activity, 25 μL forskolin and oxotremorine (25 μM and 5 μM final concentrations, respectively, diluted in dPBS) 25 μL diluted test compound, and 50 μL cells were added to remaining assay wells. […] Plates were sealed, incubated overnight at room temperature and counted the next morning on a PerkinElmer TopCount liquid scintillation counter (PerkinElmer Inc., Wellesley, Mass.). […]

T1 sequence (P20309 whole entry): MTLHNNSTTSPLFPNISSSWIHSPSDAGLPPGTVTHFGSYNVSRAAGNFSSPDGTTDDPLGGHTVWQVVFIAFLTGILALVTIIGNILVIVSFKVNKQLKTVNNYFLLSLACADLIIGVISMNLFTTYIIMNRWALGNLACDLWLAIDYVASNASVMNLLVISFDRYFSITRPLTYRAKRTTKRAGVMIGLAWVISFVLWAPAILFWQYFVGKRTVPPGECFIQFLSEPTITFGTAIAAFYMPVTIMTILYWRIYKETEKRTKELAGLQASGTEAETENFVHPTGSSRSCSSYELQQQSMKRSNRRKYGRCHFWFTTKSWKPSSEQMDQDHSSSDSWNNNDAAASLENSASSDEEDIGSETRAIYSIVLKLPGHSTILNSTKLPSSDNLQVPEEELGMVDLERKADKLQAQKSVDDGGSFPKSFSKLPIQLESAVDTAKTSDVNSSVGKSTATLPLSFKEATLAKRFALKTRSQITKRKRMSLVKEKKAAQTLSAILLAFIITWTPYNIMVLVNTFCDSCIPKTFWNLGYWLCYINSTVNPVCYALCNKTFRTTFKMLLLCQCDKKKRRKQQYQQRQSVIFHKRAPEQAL

For the compound `O=C(CCN1CCC(OC(=O)Nc2ccccc2-c2ccccc2)CC1)NCCCCCNCc1ccc(O)cc1` [compound of formula I, biphenyl-2-ylcarbamic acid 1-{2-[5-(4-hydroxybenzylamino)pentylcarbamoyl]ethyl}piperidin-4-yl ester], the pKi in test [1] was above 8.30; in test [2], above 8.00.
